# Experimental data from publication PMC10902354, “Deficiency in PHD2-mediated hydroxylation of HIF2α underlies Pacak-Zhuang syndrome” (Communications Biology, 2024).
# Test system: hypoxia-responsive element (HRE) reporter, HEK293A cells
# Test: Dual-luciferase reporter assay of HIF2α transcriptional activity (VEGFA-HRE) in HEK293A cells
# Assay type: cell-based
# Conditions: for HIF2α transcriptional activity, Firefly(RLU)/Renilla(RLU) (Normalized To WT Mean): Fig. 6a, normal oxygenated conditions; for HIF2α transcriptional activity, Firefly(RLU)/Renilla(RLU) (Normalized to WT Mean): Fig. 6b; for HIF2α transcriptional activity, Firefly(RLU)/Renilla(RLU) (Normalized to WT Mean) / HRE-driven transcriptional activity (in words): normoxic conditions; for HRE-driven transcriptional activity (in words): relative to HIF2α WT or other mutant
# From the text: The following previously described plasmids were used in this study: pcDNA3-HA-VHL30[28] and pET-46-HIS6-PHD2[4]. pGL3-VEGFA-HRE was generated by amplifying nucleotides 1271-1797 of human VEGFA CDS (AH001553.2) using primers introducing 5’ KpnI and 3’ XhoI sites; digested PCR products were subcloned into pGL3-Basic (Promega) cut with KpnI and XhoI. pRL-SV40 was obtained from Promega. pcDNA3-HA-HIF2α has been previously described. Class 1 (D539N, A530V, P531A, Y532C) and Class 2 (M535T, G537R, P534R, Y532H) HIF2α mutants, as well as mutant P405A, were generated using QuikChange site-directed mutagenesis (Agilent) and confirmed by DNA sequencing. pcDNA3-HA-HIF2α -P405A/P531A was obtained from Addgene (Addgene plasmid # 18956)[29]. The α-HA tag antibody was obtained from Cell Signaling (C29F4). HIFα-CODD peptides were custom synthesized by Genscript and supplied at ≥ 95% purity. All synthesized peptides were C-terminally amidated, peptides used for MST binding studies and crystallography were N-terminally acetylated and peptides used for the indirect hydroxylation assays were N-terminally biotinylated. For crystallography and MST experiments peptides were dissolved directly into 50 mM Tris pH 8.0 buffer and for indirect hydroxylation assays N-terminally biotinylated peptides were initially dissolved in DMSO to create stock solutions and further diluted into aqueous buffers for immobilization on streptavidin agarose beads. The sequences of each peptide can be found in Supplementary Table 1.
# HEK293A cells were maintained in DMEM (Wisent #319-015) supplemented with 10% (v/v) Fetal Bovine Serum (FBS, Wisent #098-150) in a humidified atmosphere at 37 °C and 5% CO2. Transfection complexes containing 2 μg of total DNA (0.8 ug pcDNA3-HA, 0.9 μg pGL3-VEGFa-HRE, 0.1 μg pRL-SV40, and 0.2 μg of either pcDNA3-HA-HIF2α-WT or mutant) and 8 ug Polyethyleneimine pH 7.2 (Polysciences, Cat #23966) in 400 μl OptiMEM™ Reduced Serum Medium (Gibco #31985070) were incubated for 15 min at room temperature, then were added to 5 × 10^5 HEK293A cells (diluted in 400 μl OptiMEM™) and incubated for an additional 5 min. Mixture was plated in six-well plates containing 2 ml complete medium and incubated at 37 °C, 5% CO2 for 24 h. Firefly luciferase and Renilla luciferase activity were measured with the Dual-Luciferase Reporter Assay System (Promega #E1960) according to the manufacturer’s instructions. Measurements (1 s) were recorded using a Varioskan Lux microplate reader (Thermo Fisher Scientific). For each sample, firefly RLU values were divided by corresponding Renilla RLU values.
Substance,"HIF2α transcriptional activity, Firefly(RLU)/Renilla(RLU) (Normalized To WT Mean) (Exp 1, 24 h)","HIF2α transcriptional activity, Firefly(RLU)/Renilla(RLU) (Normalized To WT Mean) (Exp 2, 24 h)","HIF2α transcriptional activity, Firefly(RLU)/Renilla(RLU) (Normalized To WT Mean) (Exp 3, 24 h)","HIF2α transcriptional activity, Firefly(RLU)/Renilla(RLU) (Normalized To WT Mean) (Exp 4, 24 h)","HIF2α transcriptional activity, Firefly(RLU)/Renilla(RLU) (Normalized To WT Mean) (Exp 5, 24 h)","HIF2α transcriptional activity, Firefly(RLU)/Renilla(RLU) (Normalized To WT Mean) (mean of Exp 1-5, 24 h)","HIF2α transcriptional activity, Firefly(RLU)/Renilla(RLU) (Normalized to WT Mean) (Exp 1, 24 h)","HIF2α transcriptional activity, Firefly(RLU)/Renilla(RLU) (Normalized to WT Mean) (Exp 2, 24 h)","HIF2α transcriptional activity, Firefly(RLU)/Renilla(RLU) (Normalized to WT Mean) (Exp3, 24 h)","HIF2α transcriptional activity, Firefly(RLU)/Renilla(RLU) (Normalized to WT Mean) (mean of Exp 1-3, 24 h)",HRE-driven transcriptional activity (in words) (listed as HIF2αP405A/P531A),HRE-driven transcriptional activity (in words) (listed as P405A mutant),HRE-driven transcriptional activity (in words) (listed as P405A mutation)
HIF2a-A530V: Class 1 HIF2α mutant expressed from plasmid in HEK293A cells,2.033,1.3534,1.897,3.054,1.561,1.98,,,,,,,
HIF2a-D539N: Class 1 HIF2α mutant expressed from plasmid in HEK293A cells,2.166,1.679,1.625,2.569,1.2135,1.85,,,,,,,
HIF2a-G537R: Class 2 HIF2α mutant expressed from plasmid in HEK293A cells,1.297,1.639,0.7606,1.668,0.917,1.256,,,,,,,
HIF2a-M535T: Class 2 HIF2α mutant expressed from plasmid in HEK293A cells,1.412,1.394,0.5168,1.444,0.9762,1.149,,,,,,,
HIF2a-P405A/P531A: HIF2α NODD and CODD site double mutant (Addgene plasmid 18956),,,,,,,1.594,4.627,2.493,2.905,indistinguishable transcriptional activity from HIF2αP531A single mutant,,
HIF2a-P405A: HIF2α NODD site mutant expressed from plasmid in HEK293A cells,,,,,,,0.6521,1.374,0.7703,0.9323,,transcriptional activity comparable to wild-type HIF2α,no significant increase in HIF2α transcriptional activation activity
HIF2a-P531A: Class 1 HIF2α mutant (CODD site mutant) expressed from plasmid in HEK293A cells,2.696,2.508,2.211,4.182,1.7617,2.672,2.003,3.782,2.069,2.618,,,
HIF2a-P534R: Class 2 HIF2α mutant expressed from plasmid in HEK293A cells,1.1133,1.547,1.102,1.425,0.8617,1.21,,,,,,,
HIF2a-WT: HA-HIF2α WT expressed from pcDNA3-HA-HIF2α in HEK293A cells,1.095,1.349,0.5003,1.339,0.7176,1,0.6881,1.449,0.8624,1,,,
HIF2a-Y532C: Class 1 HIF2α mutant expressed from plasmid in HEK293A cells,1.579,1.687,2.039,3.004,1.351,1.932,,,,,,,
HIF2a-Y532H: Class 2 HIF2α mutant expressed from plasmid in HEK293A cells,1.505,1.636,0.8256,1.673,0.9402,1.316,,,,,,,
